One assay has as its target T1, Estrogen receptor (Homo sapiens, UniProt P03372).
T1 sequence (P03372 whole entry): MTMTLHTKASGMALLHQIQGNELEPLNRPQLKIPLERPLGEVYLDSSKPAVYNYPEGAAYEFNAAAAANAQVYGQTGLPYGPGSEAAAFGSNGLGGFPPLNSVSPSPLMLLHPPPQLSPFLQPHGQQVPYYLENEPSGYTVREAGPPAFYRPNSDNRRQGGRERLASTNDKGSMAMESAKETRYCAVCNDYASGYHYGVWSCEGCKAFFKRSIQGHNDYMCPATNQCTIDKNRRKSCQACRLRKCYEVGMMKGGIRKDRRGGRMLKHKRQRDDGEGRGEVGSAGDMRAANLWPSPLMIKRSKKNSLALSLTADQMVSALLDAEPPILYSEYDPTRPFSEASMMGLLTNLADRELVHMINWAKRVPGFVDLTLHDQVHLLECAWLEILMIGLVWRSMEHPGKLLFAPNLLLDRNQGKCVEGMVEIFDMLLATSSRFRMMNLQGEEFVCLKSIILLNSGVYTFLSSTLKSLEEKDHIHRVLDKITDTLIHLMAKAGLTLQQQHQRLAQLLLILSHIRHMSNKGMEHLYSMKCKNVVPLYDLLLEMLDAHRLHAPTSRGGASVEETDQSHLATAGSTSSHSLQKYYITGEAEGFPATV
Nature of the assay: Inhibition of ERalpha (unknown origin).

In assay [1] the target is RAF proto-oncogene serine/threonine-protein kinase (Homo sapiens, UniProt P04049). The assay can be described thus: Inhibition of C-RAF (unknown origin).
The subject of the next assay is HL-60. The assay can be described thus: cells. Particulars: Homo sapiens, HL-60, 72 h.
The next assay deals with MIA PaCa-2. The assay can be described thus: cells. Particulars: Homo sapiens, MIA PaCa-2, 48 h.
Assay [2] has as its target T2, 14-3-3 protein beta/alpha (Homo sapiens, UniProt P31946).
T2 sequence (P31946 whole entry): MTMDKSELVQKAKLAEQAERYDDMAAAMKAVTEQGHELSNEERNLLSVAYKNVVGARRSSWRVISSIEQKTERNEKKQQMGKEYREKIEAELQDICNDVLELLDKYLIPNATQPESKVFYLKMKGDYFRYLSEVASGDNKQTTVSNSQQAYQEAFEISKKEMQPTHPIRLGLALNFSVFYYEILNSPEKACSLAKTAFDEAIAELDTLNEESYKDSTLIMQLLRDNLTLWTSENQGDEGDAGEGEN

The target in assay [3] is T2, 14-3-3 protein beta/alpha. The source holds these as a separate data set.

Each structure is given as a SMILES string. pIC50: −log10 of the molar value.

We go through eleven compounds from ChEMBL document CHEMBL6121064, “Recent Developments in 14-3-3 Stabilizers for Regulating Protein-Protein Interactions: An Update” (J Med Chem, 2025).

Sequence of RAF proto-oncogene serine/threonine-protein kinase (P04049 whole entry): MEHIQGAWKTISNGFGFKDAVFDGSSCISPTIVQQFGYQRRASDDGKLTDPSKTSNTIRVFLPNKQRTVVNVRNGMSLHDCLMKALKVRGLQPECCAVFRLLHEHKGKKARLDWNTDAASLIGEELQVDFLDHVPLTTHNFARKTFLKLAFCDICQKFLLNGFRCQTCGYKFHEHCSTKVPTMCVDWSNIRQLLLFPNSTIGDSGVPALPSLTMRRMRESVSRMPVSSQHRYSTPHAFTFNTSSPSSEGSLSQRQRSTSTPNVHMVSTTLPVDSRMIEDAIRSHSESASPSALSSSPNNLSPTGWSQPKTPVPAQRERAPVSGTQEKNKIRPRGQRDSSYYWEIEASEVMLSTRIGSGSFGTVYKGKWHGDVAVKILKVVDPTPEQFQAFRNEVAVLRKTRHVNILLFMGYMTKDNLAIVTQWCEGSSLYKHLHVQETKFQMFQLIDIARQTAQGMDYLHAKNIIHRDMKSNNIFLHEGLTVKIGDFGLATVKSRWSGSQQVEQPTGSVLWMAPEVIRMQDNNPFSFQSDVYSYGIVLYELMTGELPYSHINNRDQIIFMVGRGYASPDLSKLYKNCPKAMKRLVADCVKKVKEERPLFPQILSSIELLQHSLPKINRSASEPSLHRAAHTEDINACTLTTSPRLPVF
Description for HL-60: Antiproliferative activity against human HL-60 cells assessed as reduction in cell growth incubated for 72 hrs by MTT assay
Description for MIA PaCa-2: Antiproliferative activity against human MIA PaCa-2 cells assessed as reduction in cell growth measured after 48 hrs by MTT assay

In the case of `O=C(C1=C(O)C(=O)N(c2ccc(O)c(C(=O)O)c2)C1c1ccc([N+](=O)[O-])cc1)c1ccccc1` (stereo not drawn), the pIC50 (in general, −log10 of the IC50, conventionally taken in molar units) at Estrogen receptor was 4.10.
On the same count and under the same terms, next, `CC(C)CC(NC(=O)[C@H](O)[C@H](N)Cc1ccccc1)C(=O)O` (stereo partly drawn): 5.74.
With `CN(C)CCSSCCC(=O)N1CCC(O)(c2cccc(C(F)(F)F)c2)CC1`, the pIC50 in assay [1] was 4.11.
`CN(C)CCSSCCNC(=O)C1CCN(C(=O)C(C)(C)Oc2ccc(Cl)cc2)CC1`: the pIC50 is 4.72 on Estrogen receptor and 4.09 in assay [1].
Taken in the same sequence, the figures for `CN(C)CCSSCCNC(=O)C1CCCN(C(=O)c2ccc(Oc3ccccc3)cc2)C1` (stereo not drawn) were 3.37 and 3.37.
In assay [1], `COc1ccc2cc([C@H](C)C(=O)N3CCC(C(=O)NCCSSCCN(C)C)CC3)ccc2c1` had a pIC50 of 3.61.
In turn, `COC[C@H]1CC[C@@H]2/C1=C\[C@@]1(C)CCC(C(C)C)=C1C(O[C@@H]1O[C@@H](CNCc3ccccc3)[C@H](O)[C@@H](O)[C@@H]1O)[C@H](O)[C@@H]2C` (stereo partly drawn) gave a pIC50 in the assay on HL-60 of 6.60.
In the assay on MIA PaCa-2, `COC[C@H]1CC[C@@H]2/C1=C\[C@@]1(C)CCC(C(C)C)=C1C(O[C@@H]1O[C@H]3COC(C)(C)O[C@@H]3[C@@H](O)[C@@H]1O)[C@H](O)[C@@H]2C` (stereo partly drawn) gave a pIC50 of 4.74.
For `N=C(N)c1cc(-c2cccc(NC(=O)C3(Oc4ccc(Cl)cc4)CCC(N)CC3)c2)cs1` (stereo not drawn), the pIC50 in assay [2] was 3.82.
`O=Cc1ccc(-n2ccnc2-c2ccc(F)cc2F)cc1Br` showed a pIC50 in assay [3] of 3.60.
On Estrogen receptor, `NCCCNCCS` [WR-1065] gave a pIC50 of 5.55.
